Among the data in patent US7741493B2, “Heterocyclic compounds as P2X7 ion channel blockers” (Aventis Pharmaceuticals Inc., priority 2003, dated 2010) are IC50 values, retold here.

The term IC50 denotes the concentration that inhibits the measured activity by half.

Structures can show the parent of a compound that is named as a salt.

The target of the first experiment is T1, P2X7 (Homo sapiens, UniProt Q99572).
T1 sequence (Q99572 1-595): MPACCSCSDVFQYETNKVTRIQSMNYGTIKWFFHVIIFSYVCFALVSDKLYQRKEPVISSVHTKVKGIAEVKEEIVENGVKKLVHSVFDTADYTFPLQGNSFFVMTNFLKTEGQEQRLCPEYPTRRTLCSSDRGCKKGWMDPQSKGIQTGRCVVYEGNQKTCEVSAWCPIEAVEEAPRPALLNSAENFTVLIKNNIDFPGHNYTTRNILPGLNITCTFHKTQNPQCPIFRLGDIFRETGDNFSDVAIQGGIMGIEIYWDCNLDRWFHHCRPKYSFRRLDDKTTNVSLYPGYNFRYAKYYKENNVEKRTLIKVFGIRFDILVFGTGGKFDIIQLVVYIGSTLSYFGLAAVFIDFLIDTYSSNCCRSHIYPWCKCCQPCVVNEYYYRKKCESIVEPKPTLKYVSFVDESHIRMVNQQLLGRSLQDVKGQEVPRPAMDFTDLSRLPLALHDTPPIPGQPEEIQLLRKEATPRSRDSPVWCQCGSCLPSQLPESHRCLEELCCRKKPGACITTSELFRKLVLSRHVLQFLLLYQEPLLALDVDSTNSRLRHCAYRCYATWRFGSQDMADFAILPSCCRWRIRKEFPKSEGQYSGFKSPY
The experiment in a line: YO-PRO-1 dye uptake assay in U373 cells stably expressing P2X7. Format: cell-based. Also on record: The complete open reading frame of human P2X7 was amplified from Incyte clone 148057; expressed in transfected cells. The note with it: IC50 (nM), dye uptake through P2X7, U373 cells, 300 μM BzATP, 5 μM YO-PRO-1, test compounds 30 nM to 3 μM. As to the method: Following a 24-hr exposure to DNA, cells were trypsinized and re-seeded at low density in the presence of […] G418. After incubation for 2 weeks, isolated clones were selected with cloning cylinders and replated in […] G418. Cell clones were then expanded. Clones were screened for P2X7 by applying ATP and recording the resultant current using patch clamp electrophysiology.
U373 cells stably expressing P2X7 were used to screen drugs via a dye uptake assay. Cells were plated overnight on collagen coated 96-well plates at a density of 35,000 cells per well. The following day, culture media was replaced with Mg^++ and Ca^++-free Hank's balanced salt solution and various concentrations of test compounds ranging from 30 nM to 3 μM. Cells were then allowed to incubate with test compounds at 37° C. for 20 minutes. Following this incubation period YO-PRO-1 dye (Molecular Probes, Eugene, Oreg., final concentration 5 μM) and 2′-& 3′-O-(4-Benzolybenzoyl)-Adenosine 5′-triphosphate (Sigma Chemical, St Louis, Mo., final concentration 300 μM) were added to the cells sequentially. Cells were then incubated at 37° C. for 1.5 hours. […] Fluorescence in the presence of test substances was compared to that in the absence of test substances (control).
The molecule `Cc1ccccc1CC1=N[C@H](c2ccccc2)[C@H](c2ccccc2)N1` [cis-4,5-diphenyl-2-(2-methylbenzyl)-4,5-dihydro-1H-imidazole] came in with an IC50 of 321 nM. Molecule `c1ccc(CNCC2=N[C@@H](c3ccccc3)[C@@H](c3ccccc3)N2)cc1` [[(cis-4,5-Diphenyl-4,5-dihydro-1H-imidazol-2-yl)methyl]benzylamine ditrifluoroacetate] displayed an IC50 of 318 nM.

Staying with this experiment, now noted: dye uptake through P2X7, U373 cells, 300 μM BzATP, 5 μM YO-PRO-1, test compounds 30 nM to 3 μM; read-out: IC50.
As for `C[C@]1(c2ccccc2)N=C(Cc2ccc(F)c(F)c2)N[C@H]1c1ccccc1` (relative stereo) [2-(3,4-Difluorobenzyl)-cis-4,5-diphenyl-4-methyl-4,5-dihydro-1H-imidazole trifluoroacetate], the IC50 amounted to 19 nM. In the case of `Cc1ccc([C@H]2NC(NCc3ccccc3)=N[C@H]2c2ccc(C)cc2)cc1` [[cis-4,5-bis-(4-Methylphenyl)-4,5-dihydro-1H-imidazol-2-yl]-benzylamine hydrochloride], the IC50 was 275 nM. Take `Cc1cccc(CSC2=N[C@@H](c3ccccc3)[C@@H](c3ccccc3)N2)c1` [cis-4,5-diphenyl-2-(3-methylbenzyl)thio-4,5-dihydro-1H-imidazole]: the IC50 turned out to be 722 nM. Turning to `Fc1cccc([C@H]2NC(CCc3cccs3)=N[C@H]2c2cccc(F)c2)c1` [2-[(2-Thiophen-2-yl)ethyl]-cis-4,5-bis-(3-fluorophenyl)-4,5-dihydro-1H-imidazole trifluoroacetate], the IC50 came out at 592 nM. Regarding `Fc1ccc(CNC2=N[C@@H](c3ccccc3)[C@@H](c3ccccc3)N2)c(Cl)c1` [cis-4,5-diphenyl-2-(2-chloro-4-fluorobenzyl)amino-4,5-dihydro-1H-imidazole], the IC50 came to 247 nM.

Turning to `Fc1ccc(CCNC2=N[C@@H](c3ccccc3)[C@@H](c3ccccc3)N2)cc1` [cis-4,5-diphenyl-2-[2-(4-fluorophenyl)ethylamino]-4,5-dihydro-1H-imidazole], the IC50 was found to be 331 nM. As for `C[C@@]1(c2ccccc2)N=C(COCC2CCCC2)N[C@@H]1c1ccccc1` (relative stereo) [2-[(Cyclopentylmethoxy)methyl]-cis-4,5-diphenyl-4-methyl-4,5-dihydro-1H-imidazole hydrochloride], the IC50 is 194 nM. With `Fc1cccc(CNC2=N[C@@H](c3ccccc3)[C@@H](c3ccccc3)N2)c1` [(cis-4,5-Diphenyl-4,5-dihydro-1H-imidazol-2-yl)-(3-fluorobenzyl)amine hydrochloride], the IC50 worked out at 89 nM.

In the case of `c1ccc(CSCC2=N[C@@H](c3ccccc3)[C@@H](c3ccccc3)N2)cc1` [2-[(Benzylsulfanyl)methyl]-cis-4,5-diphenyl-4,5-dihydro-1H-imidazole trifluoroacetate], the IC50 came out at 583 nM.

As to `Cc1ccc(CC2=N[C@@H](c3ccccc3)[C@@H](c3ccccc3)N2)cc1F` [trifluoroacetate], the half-inhibitory concentration (IC50) was 178 nM.

Regarding `C[C@]1(c2ccccc2)N=C(Cc2ccc(F)cc2)N[C@H]1c1ccccc1` (relative stereo) [2-(4-Fluorobenzyl)-cis-4,5-diphenyl-4-methyl-4,5-dihydro-1H-imidazole trifluoroacetate], the IC50 is 44 nM. For `c1ccc([C@H]2NC(CC3Cc4ccccc4C3)=N[C@H]2c2ccccc2)cc1` [2-indan-2-ylmethyl-cis-4,5-diphenyl-4,5-dihydro-1H-imidazole trifluoroacetate], the IC50 was determined as 240 nM.

Turning to `Fc1ccc(CCC2=N[C@H](c3ccccc3)[C@H](c3ccccc3)N2)cc1F` [2-[2-(3,4-Difluorophenyl)ethyl]-cis-4,5-diphenyl-4,5-dihydro-1H-imidazole], the IC50 stood at 122 nM. Turning to `Fc1cc(CNC2=N[C@@H](c3ccccc3)[C@@H](c3ccccc3)N2)cc(F)c1F` [(cis-4,5-Diphenyl-4,5-dihydro-1H-imidazol-2-yl)-(3,4,5-trifluorobenzyl)amine hydrochloride], the IC50 was found to be 77 nM. As for `Fc1ccc(CNC2=N[C@@H](c3ccccc3F)[C@@H](c3ccccc3F)N2)cc1F` [[cis-4,5-bis-(2-Fluorophenyl)-4,5-dihydro-1H-imidazol-2-yl]-(3,4-difluorobenzyl)-amine hydrochloride], the IC50 stood at 312 nM. Still for that read-out and setting: for `c1ccc(C2N=C(C3Cc4ccccc4C3)NC2c2ccccc2)cc1` (centres unmarked) [2-indan-2-yl-4,5-diphenyl-4,5-dihydro-1H-imidazole trifluoroacetate] the value was 50 nM; for `Fc1ccccc1CCC1=N[C@@H](c2ccccc2)[C@@H](c2ccccc2)N1` [2-[2-(2-Fluorophenyl)ethyl]-cis-4,5-diphenyl-4,5-dihydro-1H-imidazole trifluoroacetate], 164 nM; for `C[C@]1(c2ccccc2)N=C(Cc2cccc(Cl)c2)N[C@H]1c1ccccc1` (relative stereo) [2-(3-Chlorobenzyl)-cis-4,5-diphenyl-4-methyl-4,5-dihydro-1H-imidazole trifluoroacetate], 42 nM. Take `Clc1cccc(CCC2=N[C@H](c3ccccc3)[C@H](c3ccccc3)N2)c1` [2-[2-(3-Chlorophenyl)ethyl]-cis-4,5-diphenyl-4,5-dihydro-1H-imidazole trifluoroacetate]: the IC50 stood at 120 nM. With `Fc1c(Cl)cccc1CC1=N[C@@H](c2ccccc2)[C@@H](c2ccccc2)N1` [trifluoroacetate], the IC50 was 142 nM.

For the molecule `c1ccc([C@H]2NC(C3(c4ccccc4)CC3)=N[C@H]2c2ccccc2)cc1` [trifluoroacetate], the IC50 came to 334 nM. `Clc1cccc(CC2=N[C@@H](c3ccccc3)[C@@H](c3ccccc3)N2)c1` [cis-4,5-diphenyl-2-(3-chlorobenzyl)-4,5-dihydro-1H-imidazole]: the IC50 was determined as 34 nM. `Cc1cccc([C@H]2NC(NCc3ccccc3)=N[C@H]2c2cccc(C)c2)c1` [[cis-4,5-bis-(3-Methylphenyl)-4,5-dihydro-1H-imidazol-2-yl]-benzylamine hydrochloride]: the IC50 amounted to 157 nM. `Fc1ccc([C@H]2NC(CCc3ccccc3)=N[C@H]2c2ccc(F)cc2)cc1` [cis-4,5-bis(4-fluorophenyl)-2-(2-phenylethyl)-4,5-dihydro-1H-imidazole]: the IC50 worked out at 277 nM. As to `C[C@@]1(c2cccc(F)c2)N=C(NCc2ccc(F)cc2)N[C@@H]1c1cccc(F)c1`, the IC50 amounted to 37 nM.

For `Fc1ccc(CC2=N[C@@H](c3ccccc3)[C@@H](c3ccccc3)N2)cc1F` [2-(3,4-Difluorobenzyl)-cis-4,5-diphenyl-4,5-dihydro-1H-imidazole trifluoroacetate], the IC50 amounted to 24 nM. In the case of `Brc1ccccc1CSC1=N[C@@H](c2ccccc2)[C@@H](c2ccccc2)N1` [cis-4,5-diphenyl-2-(2-bromobenzyl)thio-4,5-dihydro-1H-imidazole], the IC50 amounted to 521 nM. With `Brc1ccccc1CC1=N[C@@H](c2ccccc2)[C@@H](c2ccccc2)N1` [cis-4,5-diphenyl-2-(2-bromobenzyl)-4,5-dihydro-1H-imidazole], the IC50 is 321 nM. Still for that read-out and setting: for `Cc1ccc(F)cc1CC1=N[C@@H](c2ccccc2)[C@@H](c2ccccc2)N1` [trifluoroacetate] the value was 319 nM; for `Cc1cccc(CCC2=N[C@@H](c3cccc(F)c3)[C@@H](c3cccc(F)c3)N2)c1` [2-[2-(3-Methylphenyl)ethyl]-cis-4,5-bis-(3-fluorophenyl)-4,5-dihydro-1H-imidazole trifluoroacetate], 385 nM.
